experiment: Henry solubility constant Hcp at 313 K (mol/(m3 Pa)); conditions: reference: Du et al. (2017)

Henry solubility constant Hcp at 313 K	Structure (SMILES)
670	CN(C)CC(O)CO (stereo not given) [3-(dimethylamino)-1,2-propanediol]
390	OCCC1CCCCN1 (stereo not given) [2-piperidineethanol]
51	OCCN1CCCCC1 [1-(2-hydroxyethyl)piperidine]
540	CCN(CC)CC(O)CO (stereo not given) [3-(diethylamino)-1,2-propanediol]
280	CCc1ncc(C)[nH]1 [2-ethyl-4-methylimidazole]
110	COCCNCCOC [bis(2-methoxyethyl)amine]
210	CC(C)(N)CO [2-amino-2-methyl-1-propanol]
1300	CN1CCC(O)CC1 [4-hydroxy-N-methylpiperidine]
69	Cn1ccnc1 [1-methyl-1H-imidazole]
21	COCCCN [3-methoxy-1-propanamine]
810	Cc1ncc[nH]1 [2-methyl-1H-imidazole]
710	CCC(N)(CO)CO [2-amino-2-ethyl-1,3-propanediol]
760	CCc1ncc[nH]1 [2-ethylimidazole]
43	Cc1nccn1C [1,2-dimethylimidazole]
110	CC(C)NCCO [2-(isopropylamino)ethanol]
830	CN(C)CCOCCO [dimethylaminoethoxyethanol]

Structure (SMILES)	Henry solubility constant Hcp at 313 K
CN(CCO)CCO [N-methyldiethanolamine]	3300
CCN(CC)CCO [2-(diethylamino)ethanol]	5.9
CN1C2CCC1CC(O)C2 (stereo not given) [tropine]	1300
NCc1cccnc1 [3-(aminomethyl)pyridine]	430
